One assay has as its system Neuro-2a cells. The assay can be described thus: Cytoprotection against ATP-induced cell death (MTT assay). It counts as cell-based, mouse. Particulars: long-time application of ATP (4 mM, 48 h). The procedure: Neuro-2a neuroblastoma cells (ATCC® CCL-131™) were obtained from American Type Culture Collection (Manassas, VA, USA). The cells were cultivated in DMEM medium (BioloT, St. Petersburg, Russia) supplemented with 10% of fetal bovine serum (BioloT, St. Petersburg, Russia) and 1% penicillin/streptomycin (BioloT, St. Petersburg, Russia) at 37 °C and 5% CO2. Initially, cells were incubated in cultural flasks until sub-confluent (~80%). For testing, Neuro-2a cells were seeded in 96-well plates and experiments were started after 24 h.
The cytoprotective effect of peptides was assessed in Neuro-2a cells using the MTT assay. In brief, an aliquot (180μL) of cell suspension with a nominal cell density of 3 × 10^4 cells/well was dispensed into 96-well plates. The cells were incubated for 24 h in a humidified atmosphere containing 5% CO2 to allow cell attachment. At the end of the preincubation period, ATP (Sigma-Aldrich, St. Louis, MO, USA) was added to the cells at a concentration of 4 mM. Studied peptides were added to the cells at concentrations of 0.1, 1.0 or 10.0 μM for 1h prior to the addition of ATP. After incubation for 48 h at 37 °C cell viability was detected using the MTT as described previously. The standard P2X7 inhibitor, A438079 (Sigma-Aldrich, St. Louis, MO, USA), at a concentration of 10 μM was used as a positive control.
All data were obtained in three independent replicates and calculated values were expressed as mean ± standard error of the mean (SEM). The Student’s t-test was performed using SigmaPlot 14.0 (Systat Software Inc., San Jose, CA, USA) to determine statistical significance.

Assay [1] addresses T1, hP2X7 (47–334 a.a., extracellular domain, 36.8 kDa) (Homo sapiens, UniProt Q99572).
T1 construct: hP2X7 (47–334 a.a., extracellular domain, 36.8 kDa); purchased Abbexa LTD, Cambridge, UK abx167020
T1 sequence (Q99572 47-334): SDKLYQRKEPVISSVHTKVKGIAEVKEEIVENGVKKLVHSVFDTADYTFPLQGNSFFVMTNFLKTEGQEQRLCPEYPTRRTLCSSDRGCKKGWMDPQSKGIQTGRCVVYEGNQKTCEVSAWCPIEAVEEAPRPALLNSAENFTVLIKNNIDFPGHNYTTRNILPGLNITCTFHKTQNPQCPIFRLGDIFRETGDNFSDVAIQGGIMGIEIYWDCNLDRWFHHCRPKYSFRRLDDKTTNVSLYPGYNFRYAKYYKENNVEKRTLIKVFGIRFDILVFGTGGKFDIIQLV
The assay can be described thus: Surface plasmon resonance (Biacore 3000). It counts as binding. The procedure: SPR analysis was performed at 25 °C using a Biacore® 3000 optical biosensor (GE Healthcare, Chicago, IL, USA) and CM5 sensor chips. HBS-N (10 mM HEPES, 150 mM NaCl, pH 7.4) (Cytiva, Chicago, IL, USA) was used as a working buffer for the immobilization of hP2X7 (47–334 a.a., extracellular domain, 36.8 kDa) (abx167020 Abbexa LTD, Cambridge, UK). The carboxyl groups of the dextran biosensor chip were activated for 5 min by introducing a 1:1 mixture of 0.2 M 1-ethyl-3-(3-dimethylaminopropyl)carbodiimide hydrochloride (EDC) and 0.05 M N-hydroxysuccinimide (NHS) at a rate of 5 µL/min followed by a 1 min wash with HBS-N buffer at the same flow rate. Next, hP2X7 (15 μg/mL) in 10 mM sodium acetate (pH 5.0) was injected into the working channel of the biosensor for 10 min at a flow rate of 5 μL/min. The final level of immobilization was 12300 RU (12.3 ng of protein). The control channel without immobilized P2X7R was used to correct the effects of the nonspecific binding of analytes to the chip surface.
Lyophilized peptides were prepared as 100 μM stock solutions in HBS-N buffer. Experimental peptide samples were prepared in the range of 5–100 μM. The samples were injected through the channels of the biosensor (working and reference) at a flow rate of 10 μL/min for 6 min. The dissociation of the formed peptide/P2X7 complexes was recorded for at least 6 min from the moment of injection at the same flow rate after the injection of the sample. After each cycle of the biosensor, the bound analyte was removed by double injection of the regenerating solution (2 M NaCl, 1% CHAPS) at a flow rate of 30 μL/min for 30 s.
SPR sensorgrams were processed in Biacore 3000 Evaluation Software v.1.0 (GE Healthcare, Chicago, IL, USA) and BIAevaluation Software v. 4.1.1 (GE Healthcare, Chicago, IL, USA) using “1:1 binding (Langmuir)” and “two-state binding (conformational change)” data processing models.
The 1:1 (Langmuir) binding model is a 1:1 interaction model between a compound (C) and an immobilized protein (P) and is equivalent to the Langmuir isotherm for surface adsorption: C + P ↔ CP.
The two-state binding (conformational change) model describes the 1:1 binding of a compound (C) to an immobilized protein (P) followed by a conformational change in the complex (CP ↔ CP*). It is assumed that the conformationally changed complex can dissociate only by the reverse conformational change: C + P ↔ CP ↔ CP*. The final kinetic parameters were obtained from the models that best agree with the experimental curves for the minimum of the obtained value of chi2. The equations describing the models used are as follows: • (1) 1:1 (Langmuir) binding: Kd = koff/kon, where Kd is the equilibrium dissociation constant, koff is the dissociation rate constant, kon is the association rate constant. • (2) Reaction of two states (with conformational change): Kd = koff1/kon1 × (1 + kon2/koff2) − 1, where Kd is the equilibrium dissociation constant, koff1 is the dissociation rate constant, kon1 is the association rate constant, kon2 is the direct association rate constant for the CP ↔ transition CP*, koff2 is the inverse dissociation rate constant for the CP ↔ CP* transition.
The model describing the interaction was chosen according to the lowest chi2 parameter’s value. Chi2 is a measure of the average squared residual between the experimental data and the fitted curve.
In general terms: In SPR one partner is held on a chip, and binding of the other changes the refractive index at the surface.

Where [2] appears, read: model: binding with two states (CP ↔ CP* transition), 25 °C, HBS-N pH 7.4, average ± SD, n = 3.
Where [3] appears, read: model: binding with two states, 25 °C, HBS-N pH 7.4, average ± SD, n = 3.

Positions of bridges follow the written chain, without caps; N, C: chain ends. No end group written: not given here.

Broadly, the Kd is the constant that tells how readily two partners part at equilibrium. Lower therefore signals a tighter complex. With “RGICSEPKVVGPCKAGLRRFYYDSETGECKPFIYGGCKGNKNNFETLHACRGICRA (disulfide 4-54, 13-37, 29-50 (inferred)) [HCRG1]”, the “protection from ATP-induced death” value with Neuro-2a cells was “partially protected neuroblastoma cells from ATP-induced death”. For the same sequence, the “affinity to P2X7” value in assay [1] (SPR, peptides 5–100 μM) is “highest affinity”. In assay [1] (setting [2]), the koff2 entry is on record as “(1.5 ± 0.20) × 10^−3 c^−1” and the kon2 result is reported as “(8.5 ± 1.0) × 10^−3 mole^−1c^−1”. Moreover, in assay [1] (setting [3]), the koff1 entry is recorded as “(4.37 ± 0.57) × 10^−2 c^−1” and the kon1 result is “(9.20 ± 1.10) × 10^2 mole^−1c^−1”. Binding in assay [1] (model: binding with two states, 25 °C, HBS-N pH 7.4, n = 3) was characterised by a dissociation constant (Kd) of 7.13 µM.
